“And” between values parts separate entries of the source, which are not always exact repeats. Equal entries are not always repeated.
Legend:
[1] = test system: leukocyte adhesion to the retinal vasculature; assay: Leukocyte adhesion to the retinal vasculature (leukostasis) of streptozotocin-diabetic Wistar rats; format: in vivo, rat; details: 1% phosphate eye drop twice-a-day for 7 days, P<0.05
Source text: The effect of compound n° 49 phosphate on leukocyte adhesion to the retinal vasculature of streptozotocin-diabetic Wistar rats was also investigated using the same protocol of administration of compound n° 49 phosphate (1% eye drop twice-a-day for 7 days).

[2] = test system: retina of diabetic Wistar rats (B1R, B2R, i-NOS, e-NOS, COX-2, ICAM-1, VEGF-R2, VEGF-a, IL-1β, HIF-1α mRNA); assay: mRNA expression of cytokines, vasoactive mediators and growth factors in retina of diabetic Wistar rats; format: in vivo, rat; details: 1% eye drops 7 days
Source text: In order to explore molecular pathways involved into reduction of retinal vascular permeability by compound n° 49 phosphate in diabetic rats, expression of mRNA of cytokines, vasoactive mediators and growth factors was quantified in retina of control and diabetic Wistar rats treated or not with 1% compound n° 49 phosphate eye drops for 7 days. Expression of mRNA of B1R, B2R, i-NOS, e-NOS, COX-2, ICAM-1, VEGF-R2, VEGF-a, IL-1β and HIF-1α was increased in diabetic rat retina compared to control by 7.5-fold (P<0.05), 5.5, 15- (P<0.01), 6.5-, 8- (P<0.05), 8- , 5- (P<0.05), 12-, 6.5- (P<0.01) and 7-fold (P<0.05), respectively. Expression of TNF-α mRNA remained unchanged.

[3] = test system: retinal vascular permeability in streptozotocin-diabetic Brown-Norway rats; assay: Retinal vascular permeability (Evans Blue dye) in streptozotocin-diabetic Brown-Norway rats, eye drops; format: in vivo, rat
Method: Male Brown-Norway or Wistar rats were made diabetic by […] injection of 65 mg/kg intraperitoneal streptozotocin. Rats with a glycemia <350 mg/dl were discarded from the study. Seven days later, Brown-Norway rats were treated twice daily for 7 days with a single eye drop (10 μl) containing 0.1, 0.3, 1 and 3% phosphate salt of compound n° 49 or its vehicle (Saline Solution). Wistar rats were treated over the same period (from day 7 for 7 days) with a single eye drop (10 μl) containing 0.3 and 1% fumarate salt of compound n° 49 or its vehicle (Saline Solution). On day 15, retinal vascular leakage was determined by measurement of retinal content of Evans Blue dye.
More specifically, FIG. 1A is the dose-response of compound n° 49 instilled twice a day for 7 days as eye drops (0.1 to 3%) on retinal vascular leakage in streptozotocin-diabetic Brown-Norway rats. Recombinant tissue kallikrein binding protein (rKBP) was used as a reference drug and was given intravitreally 48 hours before vascular leakage measurement. Values are means ±standard error mean of 12 eyes/group (6 rats). *** means that P<0.001in a Student's t-test.
The route by which the phosphate salt of compound n° 49 reaches the retina following topical instillation was investigated to determine whether it is mainly by systemic circulation or by the trans- and/or peri-ocular pathway. Diabetic Brown-Norway rats were treated with 3% compound n° 49 phosphate in a single eye for 7 days or subcutaneously with matching daily dosage (0.6 mg/rat). […] In addition, a daily subcutaneous administration of 0.6 mg compound n° 49 phosphate rat had no effect on retinal vascular permeability.

[4] = test system: retina of diabetic Wistar rats (B1R, B2R, i-NOS, e-NOS, COX-2, ICAM-1, VEGF-R2, VEGF-a, IL-1β, HIF-1α mRNA); assay: mRNA expression of cytokines, vasoactive mediators and growth factors in retina of diabetic Wistar rats; format: in vivo, rat; details: 1% eye drops 7 days; remark: listed apart in the source
[5] = test system: retinal vascular leakage in STZ diabetic Brown-Norway rats; details: intravitreal route, positive reference drug; cited from earlier work

Molecule: COc1cc(C)c(S(=O)(=O)N(C)CCOCC(=O)N(C)Cc2ccc(C3=NCCN3)cc2)c(C)c1 [compound n° 49 phosphate]
- leukostasis in retinal vessels of diabetic rats [1]: significantly blunted
- mRNA expression of B1R in retina [2]: down-regulated to control level
- mRNA expression of B2R in retina [2]: down-regulated to control level
- mRNA expression of COX-2 in retina [2]: down-regulated to control level
- mRNA expression of HIF-1α in retina [2]: down-regulated to control level
- mRNA expression of ICAM-1 in retina [2]: down-regulated to control level
- mRNA expression of VEGF-A in retina (in list down-regulated to control level) [2]: down-regulated to control level
- mRNA expression of e-NOS in retina [2]: down-regulated to control level
- mRNA expression of i-NOS in retina [2]: down-regulated to control level
- reduction of expression of VEGF-A mRNA in retina [2]: 50%
- reduction of retinal vascular permeability, treated eye ([3]; 3% phosphate in a single eye for 7 days, diabetic Brown-Norway rats, P<0.001): 37%
- reduction of retinal oedema, maximum ([3]; phosphate salt, eye drop 0.1-3% twice daily for 7 days, dose-dependent, diabetic Brown-Norway rats): 55%
- mRNA expression of IL-1β in retina [4]: down-regulated to control level

Molecule: COc1cc(C)c(S(=O)(=O)N(C)CCOCC(=O)N(C)Cc2ccc(C3=NCCN3)cc2)c(C)c1 [compound n° 49]
- reduction of retinal edema, maximum ([3]; 1% eye drops, two separate preliminary studies (data not shown), strain not stated): 58% and 63%

B1: rKBP: Recombinant tissue kallikrein binding protein, reference drug given intravitreally (protein, UniProt P29622 21-427, looked up)
Kallistatin: QLHVEHDGESCSNSSHQQILETGEGSPSLKIAPANADFAFRFYYLIASETPGKNIFFSPLSISAAYAMLSLGACSHSRSQILEGLGFNLTELSESDVHRGFQHLLHTLNLPGHGLETRVGSALFLSHNLKFLAKFLNDTMAVYEAKLFHTNFYDTVGTIQLINDHVKKETRGKIVDLVSELKKDVLMVLVNYIYFKALWEKPFISSRTTPKDFYVDENTTVRVPMMLQDQEHHWYLHDRYLPCSVLRMDYKGDATVFFILPNQGKMREIEEVLTPEMLMRWNNLLRKRNFYKKLELHLPKFSISGSYVLDQILPRLGFTDLFSKWADLSGITKQQKLEASKSFHKATLDVDEAGTEAAAATSFAIKFFSAQTNRHILRFNRPFLVVIFSTSTQSVLFLGKVVDPTKP
- reduction of retinal vascular leakage [5]: approximately 50%
